Experimental data from patent US8106055B2, “Substituted amide compounds” (Gruenenthal GmbH, priority 2007, dated 2012).

Tests used:
[1] = molecular target: T1, human bradykinin 1 receptor (B1R) (Homo sapiens, UniProt P46663); assay: Functional investigation on the human bradykinin 1 receptor (B1R), Ca2+ FLIPR assay in CHO K1 hB1R cells; assay type: cell-based; details: B1R antagonism human; test substance 10 μM; Ca2+ FLIPR, CHO K1 hB1R cells
T1 construct: expressed in transfected cells; host or cells: CHO K1 cells
T1 sequence (P46663 1-353): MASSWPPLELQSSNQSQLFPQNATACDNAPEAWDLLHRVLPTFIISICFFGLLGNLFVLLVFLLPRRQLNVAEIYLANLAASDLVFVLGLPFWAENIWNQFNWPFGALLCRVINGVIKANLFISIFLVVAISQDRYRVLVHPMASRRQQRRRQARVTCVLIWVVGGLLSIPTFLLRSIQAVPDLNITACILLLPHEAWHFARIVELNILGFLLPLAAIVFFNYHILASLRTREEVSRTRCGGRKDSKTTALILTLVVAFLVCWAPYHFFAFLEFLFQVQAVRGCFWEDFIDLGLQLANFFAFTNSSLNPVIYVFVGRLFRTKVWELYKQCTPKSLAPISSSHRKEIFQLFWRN
How it was run: (§1)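 Stably transfected CHO K1 cells loaded with Fluo-4; FLIPR Ca2+ fluorescence peak (ex 488/em 540 nm). Compound added first (agonism vs Lys-Des-Arg9-bradykinin ≥50 nM human, Des-Arg9-bradykinin 10 μM rat), then after 10-20 min agonist at EC80; antagonism as % inhibition, IC50 from concentration series, n=2-3, N≥2.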

[2] = molecular target: T2, bradykinin 1 receptor (B1R) of the rat (Rattus norvegicus, UniProt P97583); assay: Functional investigation on the rat bradykinin 1 receptor (B1R), Ca2+ FLIPR assay in CHO K1 rB1R cells; assay type: cell-based; details: B1R antagonism rat; test substance 10 μM; Ca2+ FLIPR, CHO K1 rB1R cells
T2 construct: expressed in transfected cells; host or cells: CHO K1 cells
T2 sequence (P97583 1-337): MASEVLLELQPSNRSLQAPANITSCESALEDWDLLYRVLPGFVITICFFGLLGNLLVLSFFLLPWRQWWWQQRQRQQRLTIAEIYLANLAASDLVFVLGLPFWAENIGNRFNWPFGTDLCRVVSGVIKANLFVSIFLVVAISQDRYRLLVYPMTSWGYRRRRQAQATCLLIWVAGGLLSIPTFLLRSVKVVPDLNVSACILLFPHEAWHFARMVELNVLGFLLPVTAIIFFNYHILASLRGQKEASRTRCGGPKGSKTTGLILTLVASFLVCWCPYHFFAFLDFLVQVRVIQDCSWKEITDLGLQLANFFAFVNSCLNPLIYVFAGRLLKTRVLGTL
How it was run: as §1

SMILES | B1R Ant. h [10 μM] % Inhibition [1] | B1R Ant. r [10 μM] % Inhibition [2]
COc1cc(C)c(S(=O)(=O)N(C)CCOCC(=O)NCCC2CCC(C(c3ccc(F)cc3)N(C)C)CC2)c(C)c1C (stereo not shown) [Example 354] | 104% | 44%
CN(C)C(c1cccc(F)c1)C1CCC(CNC(=O)COC2CCN(S(=O)(=O)c3ccccc3)C2)CC1 (stereo not shown) [Example 355] | −7% | 28%
CN(C)C(c1ccc(F)cc1)C1CCC(NC(=O)COCCN(C)S(=O)(=O)c2ccc(Cl)cc2Cl)CC1 (stereo not shown) [Example 356] | 92% | 43%
CN(C)C(c1ccc(F)cc1)C1CCC(NC(=O)COCCN(C)S(=O)(=O)c2ccc(F)cc2)CC1 (stereo not shown) [Example 357] | 7% | 27%
COc1cc(C)c(S(=O)(=O)N(CCOCC(=O)NCCC2CCC(C(c3cccc(F)c3)N(C)C)CC2)Cc2ccccc2)c(C)c1 (stereo not shown) [Example 358] | 66% | 27%
CN(C)C(c1ccc(F)cc1)C1CCC(CNC(=O)COC2CCCCC2N(C)S(=O)(=O)c2ccc(Cl)c(Cl)c2)CC1 (stereo not shown) [Example 359] | 42% | −4%
CN(C)C(c1ccc(F)cc1)C1CCC(NC(=O)COCCN(C)S(=O)(=O)c2ccc(OC(F)(F)F)cc2)CC1 (stereo not shown) [Example 361] | 3% | 31%
Cc1ccc(S(=O)(=O)N(C)CCOCC(=O)NCC2CCC(C(c3ccc(F)cc3)N(C)C)CC2)cc1 (stereo not shown) [Example 362] | 7% | 3%
